This passage reports inhibition results from US8680159B2, “Bradykinin 1 receptor modulating compounds” (Gruenenthal GmbH, priority 2010, dated 2014).

One test deals with T1, B1R receptor of the rat (CHO K1 cells stably transfected with the B1R gene of the rat) (Rattus norvegicus, UniProt P97583).
T1 construct: expressed in transfected cells; host or cells: CHO K1 cells (Chinese hamster ovary), stably transfected
T1 sequence (P97583 1-337): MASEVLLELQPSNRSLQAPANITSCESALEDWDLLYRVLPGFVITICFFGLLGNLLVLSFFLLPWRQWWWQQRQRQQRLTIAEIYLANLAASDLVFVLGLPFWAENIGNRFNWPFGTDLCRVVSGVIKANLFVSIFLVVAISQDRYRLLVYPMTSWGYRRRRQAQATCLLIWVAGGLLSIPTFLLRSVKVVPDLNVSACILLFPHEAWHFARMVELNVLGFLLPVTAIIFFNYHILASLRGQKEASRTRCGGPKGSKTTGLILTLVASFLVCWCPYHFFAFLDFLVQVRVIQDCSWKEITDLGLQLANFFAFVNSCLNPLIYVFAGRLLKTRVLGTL
In words: Functional study on the bradykinin receptor 1 (B1R), Ca2+ fluorescence (Fluo-4) FLIPR/Novostar assay, rB1R cells. In kind it is cell-based. The settings on record: CHO-K1, 10 μM, library compounds CC_H, read-out: % Inhibition (r-B1R) at 10 μM. The method in brief: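 Ca2+ influx (Fluo-4, peak fluorescence, λex 488/λem 540 nm) was measured in CHO K1 lines expressing rat or human B1R. After a 10 μM test-compound pre-addition scoring % activation, cells received EC80 agonist: Des-Arg9-bradykinin for rat, Lys-Des-Arg9-bradykinin for human. Antagonism was expressed as % of maximum inhibition, with IC50 from varied concentrations.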
As a reminder, the inhibition is the change of the read-out against control, counted positive when it falls. In the case of `CN(C(=O)c1ccc2c(c1)C(NC(=O)c1ccccc1Cl)CC2)C1CCN(c2ccnc(N3CCCC3)n2)CC1` (stereo not drawn) [CC_H-612, 3-[(2-Chloro-benzoyl)amino]-N-methyl-N-[1-(2-pyrrolidin-1-yl-pyrimidin-4-yl)-piperidin-4-yl]-2,3-dihydro-1H-indene-5-carboxylic acid amide], the inhibition at 10 µM came to 101%.

With `Cc1ncc2n1C(=O)N(C1CCC(N(C)C(=O)c3ccc4c(c3)C(NC(=O)c3cccnc3C(F)(F)F)CC4)CC1)C2` (stereo not drawn) [CC_H-607, N-[6-[Methyl-[4-(5-methyl-3-oxo-1,2-dihydro-imidazo[5,1-e]imidazol-2-yl)-cyclohexyl]-carbamoyl]-2,3-dihydro-1H-inden-1-yl]-2-(trifluoromethyl)-pyridine-3-carboxylic acid amide], the inhibition at 10 µM was found to be 96%.

For the molecule `CN(C(=O)c1ccc2c(c1)C(NC(=O)c1cccnc1C(F)(F)F)CC2)C1CCN(c2ccnc(S(C)(=O)=O)n2)CC1` (stereo not drawn) [CC_H-600, N-[6-[Methyl-[1-(2-methylsulfonyl-pyrimidin-4-yl)-piperidin-4-yl]-carbamoyl]-2,3-dihydro-1H-inden-1-yl]-2-(trifluoromethyl)-pyridine-3-carboxylic acid amide], the inhibition at 10 µM came out at 91%.

The test is the same for the next values; noted with them: CHO-K1, 10 μM, read-out: % Inhibition (r-B1R) at 10 μM.
Take `Cc1cc(N2CCC(N(C)C(=O)c3ccc4c(c3)C(N(C)C(=O)CCC3CCCC3)CC4)CC2)cc(C)n1` (stereo not drawn) [CC_H-354, 3-(3-Cyclopentyl-propanoyl-methyl-amino)-N-[1-(2,6-dimethyl-pyridin-4-yl)-piperidin-4-yl]-N-methyl-2,3-dihydro-1H-indene-5-carboxylic acid amide]: the inhibition at 10 µM stood at 110%.

With `CN(C(=O)NC1CCCc2ccc(C(=O)N(C)C3CCN(c4ccncc4)CC3)cc21)c1ccccc1Cl` (stereo not drawn) [CC_H-268, 8-[[(2-Chlorophenyl)-methyl-carbamoyl]amino]-N-methyl-N-(1-pyridin-4-yl-piperidin-4-yl)-5,6,7,8-tetrahydro-naphthalene-2-carboxylic acid amide], the inhibition at 10 µM was determined as 110%.

For the molecule `Cc1cc(N2CCC(N(C)C(=O)c3ccc4c(c3)C(N(C)C(=O)Nc3cc(Cl)cc(Cl)c3)CC4)CC2)cc(C)n1` (stereo not drawn) [CC_H-341, 3-[[(3,5-Dichloro-phenyl)-carbamoyl]-methyl-amino]-N-[1-(2,6-dimethyl-pyridin-4-yl)-piperidin-4-yl]-N-methyl-2,3-dihydro-1H-indene-5-carboxylic acid amide], the inhibition at 10 µM was 95%.

On to `CN(C(=O)c1ccc2c(c1)C(NC(=O)CC(C)(C)C)CCO2)C1CCN(c2ccncc2)CC1` (stereo not drawn) [CC_H-275, 4-(3,3-Dimethyl-butanoylamino)-N-methyl-N-(1-pyridin-4-yl-piperidin-4-yl)-3,4-dihydro-2H-chromene-6-carboxylic acid amide], for which the inhibition at 10 µM was determined as 111%.

Turning to `CN(C(=O)NC1CCc2ccc(C(=O)N(C)C3CCN(c4ccc5cnccc5c4)CC3)cc21)c1ccc(Cl)cc1Cl` (stereo not drawn) [CC_H-376, 3-[[(2,4-Dichlorophenyl)-methyl-carbamoyl]amino]-N-(1-isoquinolin-6-yl-piperidin-4-yl)-N-methyl-2,3-dihydro-1H-indene-5-carboxylic acid amide], the inhibition at 10 µM amounted to 77%.

Consider `Cc1cc(N2CCC(N(C)C(=O)c3ccc4c(c3)C(N(C)C(=O)Nc3ccc(Cl)cc3C(F)(F)F)CC4)CC2)cc(C)n1` (stereo not drawn) [CC_H-344, 3-[[[4-Chloro-2-(trifluoromethyl)-phenyl]-carbamoyl]-methyl-amino]-N-[1-(2,6-dimethyl-pyridin-4-yl)-piperidin-4-yl]-N-methyl-2,3-dihydro-1H-indene-5-carboxylic acid amide], for which the inhibition at 10 µM came to 90%.

Consider `Cc1cc(N2CCC(N(C)C(=O)c3ccc4c(c3)C(NC(=O)Nc3c(Cl)cccc3Cl)CC4)CC2)cc(C)n1` (stereo not drawn) [CC_H-306, 3-[[(2,6-Dichloro-phenyl)-carbamoyl]amino]-N-[1-(2,6-dimethyl-pyridin-4-yl)-piperidin-4-yl]-N-methyl-2,3-dihydro-1H-indene-5-carboxylic acid amide], for which the inhibition at 10 µM was found to be 107%.

Consider `Cc1ccc(F)c(C(=O)NC2CC(C)(C)c3ccc(C(=O)N(C)C4CCN(c5ccncc5)CC4)cc32)c1Cl` (stereo not drawn) [CC_H-224, 3-[(2-Chloro-6-fluoro-3-methyl-benzoyl)amino]-N,1,1-trimethyl-N-(1-pyridin-4-yl-piperidin-4-yl)-2,3-dihydro-indene-5-carboxylic acid amide], for which the inhibition at 10 µM came to 110%.

Consider `CN(C(=O)c1ccc2c(c1)C(NC(=O)Nc1ccc(F)c(Cl)c1)CCO2)C1CCN(c2ccncc2)CC1` (stereo not drawn) [CC_H-289, 4-[[(3-Chloro-4-fluoro-phenyl)-carbamoyl]amino]-N-methyl-N-(1-pyridin-4-yl-piperidin-4-yl)-3,4-dihydro-2H-chromene-6-carboxylic acid amide], for which the inhibition at 10 µM was found to be 77%.

Consider `COCC(=O)NC1CCc2ccc(C(=O)N(C)C3CCN(c4ccc5cnccc5c4)CC3)cc21` (stereo not drawn) [CC_H-363, N-(1-Isoquinolin-6-yl-piperidin-4-yl)-3-[(2-methoxy-acetyl)amino]-N-methyl-2,3-dihydro-1H-indene-5-carboxylic acid amide], for which the inhibition at 10 µM turned out to be 89%.

Consider `CC(C)CC(=O)NC1CCOc2ccc(C(=O)N(C)C3CCN(c4ccncc4)CC3)cc21` (stereo not drawn) [CC_H-293, N-Methyl-4-(3-methyl-butanoylamino)-N-(1-pyridin-4-yl-piperidin-4-yl)-3,4-dihydro-2H-chromene-6-carboxylic acid amide], for which the inhibition at 10 µM was determined as 109%.

Turning to `CN(C(=O)c1ccc2c(c1)C(NS(=O)(=O)C1CCCCC1)CCC2)C1CCN(c2ccncc2)CC1` (stereo not drawn) [CC_H-270, 8-[(Cyclohexylsulfonyl)amino]-N-methyl-N-(1-pyridin-4-yl-piperidin-4-yl)-5,6,7,8-tetrahydro-naphthalene-2-carboxylic acid amide], the inhibition at 10 µM stood at 110%.

With `Cc1cc(N2CCC(N(C)C(=O)c3ccc4c(c3)C(N(C)C(=O)Nc3ccccc3Cl)CC4)CC2)cc(C)n1` (stereo not drawn) [CC_H-336, 3-[[(2-Chlorophenyl)-carbamoyl]-methyl-amino]-N-[1-(2,6-dimethyl-pyridin-4-yl)-piperidin-4-yl]-N-methyl-2,3-dihydro-1H-indene-5-carboxylic acid amide], the inhibition at 10 µM amounted to 97%.

On to `COCC(=O)NC1CC(C)(C)c2ccc(C(=O)N(C)C3CCN(c4ccncc4)CC3)cc21` (stereo not drawn) [CC_H-228, 3-[(2-Methoxy-acetyl)amino]-N,1,1-trimethyl-N-(1-pyridin-4-yl-piperidin-4-yl)-2,3-dihydro-indene-5-carboxylic acid amide], for which the inhibition at 10 µM was 107%.

Turning to `CN(C(=O)c1ccc2c(c1)C(NC(=O)Nc1ccccc1Cl)CC2(C)C)C1CCN(c2ccncc2)CC1` (stereo not drawn) [CC_H-232, 3-[[(2-Chlorophenyl)-carbamoyl]amino]-N,1,1-trimethyl-N-(1-pyridin-4-yl-piperidin-4-yl)-2,3-dihydro-indene-5-carboxylic acid amide], the inhibition at 10 µM came out at 96%.

`CN(C(=O)c1ccc2c(c1)C(NC(=O)c1cccc(C(F)(F)F)c1Cl)CC2)C1CCN(c2ccc3cnccc3c2)CC1` (stereo not drawn) [CC_H-364, 3-[[2-Chloro-3-(trifluoromethyl)-benzoyl]amino]-N-(1-isoquinolin-6-yl-piperidin-4-yl)-N-methyl-2,3-dihydro-1H-indene-5-carboxylic acid amide]: the inhibition at 10 µM stood at 111%.

For `Cc1cc(N2CCC(N(C)C(=O)c3ccc4c(c3)C(NC(=O)Nc3cc(C(F)(F)F)ccc3Cl)CC4)CC2)cc(C)n1` (stereo not drawn) [CC_H-311, 3-[[[2-Chloro-5-(trifluoromethyl)-phenyl]-carbamoyl]amino]-N-[1-(2,6-dimethyl-pyridin-4-yl)-piperidin-4-yl]-N-methyl-2,3-dihydro-1H-indene-5-carboxylic acid amide], the inhibition at 10 µM came to 80%.

On to `Cc1cc(N2CCC(N(C)C(=O)c3ccc4c(c3)C(NC(=O)C3CC3)CC4)CC2)cc(C)n1` (stereo not drawn) [CC_H-298, 3-(Cyclopropanecarbonylamino)-N-[1-(2,6-dimethyl-pyridin-4-yl)-piperidin-4-yl]-N-methyl-2,3-dihydro-1H-indene-5-carboxylic acid amide], for which the inhibition at 10 µM is 101%.

Regarding `Cc1cc(N2CCC(N(C)C(=O)c3ccc4c(c3)C(NC(=O)CCC3CCCC3)CC4)CC2)cc(C)n1` (stereo not drawn) [CC_H-320, 3-(3-Cyclopentyl-propanoylamino)-N-[1-(2,6-dimethyl-pyridin-4-yl)-piperidin-4-yl]-N-methyl-2,3-dihydro-1H-indene-5-carboxylic acid amide], the inhibition at 10 µM is 110%.

On to `Cc1cc(N2CCC(N(C)C(=O)c3ccc4c(c3)C(N(C)C(=O)c3cc(Cl)ccc3Cl)CC4)CC2)cc(C)n1` (stereo not drawn) [CC_H-328, 3-[(2,5-Dichloro-benzoyl)-methyl-amino]-N-[1-(2,6-dimethyl-pyridin-4-yl)-piperidin-4-yl]-N-methyl-2,3-dihydro-1H-indene-5-carboxylic acid amide], for which the inhibition at 10 µM amounted to 111%.

Turning to `Cc1cc(N2CCC(N(C)C(=O)c3ccc4c(c3)C(NC(=O)c3c(F)ccc(C)c3Cl)CC4)CC2)cc(C)n1` (stereo not drawn) [CC_H-295, 3-[(2-Chloro-6-fluoro-3-methyl-benzoyl)amino]-N-[1-(2,6-dimethyl-pyridin-4-yl)-piperidin-4-yl]-N-methyl-2,3-dihydro-1H-indene-5-carboxylic acid amide], the inhibition at 10 µM stood at 111%.
